Test results taken from US12479850B2, “Compound having Axl and c-Met kinase inhibitory activity, preparation thereof and application thereof” (Shanghai Institute of Materia Medica, Chinese Academy of …, priority 2019, dated 2025).

Legend:
[1] = target: T1, Axl kinase domain recombinant protein (Homo sapiens, UniProt P30530); assay: ELISA kinase activity assay, Axl
T1 sequence (P30530 536-807 limits assumed): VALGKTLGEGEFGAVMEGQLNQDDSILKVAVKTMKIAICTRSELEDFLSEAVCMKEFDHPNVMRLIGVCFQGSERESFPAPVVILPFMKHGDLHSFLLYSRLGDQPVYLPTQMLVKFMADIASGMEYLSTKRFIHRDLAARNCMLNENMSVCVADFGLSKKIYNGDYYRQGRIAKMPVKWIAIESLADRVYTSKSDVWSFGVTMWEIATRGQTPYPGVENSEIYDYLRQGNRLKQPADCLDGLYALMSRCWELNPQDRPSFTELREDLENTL

[2] = target: c-Met kinase domain recombinant protein (Homo sapiens, UniProt P08581); assay: ELISA kinase activity assay, c-Met
Chain of c-Met kinase domain recombinant protein (P08581 1078-1345 limits assumed): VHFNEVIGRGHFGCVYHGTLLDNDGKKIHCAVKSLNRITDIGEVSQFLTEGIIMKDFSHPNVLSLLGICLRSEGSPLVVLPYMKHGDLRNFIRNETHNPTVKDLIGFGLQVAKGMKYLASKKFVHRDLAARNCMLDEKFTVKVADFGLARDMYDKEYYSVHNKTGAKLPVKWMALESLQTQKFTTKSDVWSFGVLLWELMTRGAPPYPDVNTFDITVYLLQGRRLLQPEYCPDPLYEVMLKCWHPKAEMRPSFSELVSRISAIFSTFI

Structure (SMILES) | IC50 [1] [nM] | IC50 [2] [nM]
CC(C)n1cc(C(=O)Nc2ccc(Oc3ccnc(-c4cnn(C)c4)c3)c(F)c2)c(=O)n(-c2ccccc2F)c1=O [No. 18, N-(3-fluoro-4-((2-(1-methyl-1H-pyrazol-4-yl)pyridin-4-yl)oxy)phenyl)-3-(2-fluorophenyl)-1-isopropyl-2,4-dioxo-1,2,3,4-tetrahydropyrimidin-5-carboxamide] | < 10 | 10 to 100
CCCn1cc(C(=O)Nc2ccc(Oc3ccnc(-c4cnn(C)c4)c3)c(F)c2)c(=O)n(-c2ccc(F)cc2)c1=O [No. 4, N-(3-fluoro-4-((2-(1-methyl-1H-pyrazol-4-yl)pyridin-4-yl)oxy)phenyl)-3-(4-fluorophenyl)-1-propyl-2,4-dioxo-1,2,3,4-tetrahydropyrimidin-5-carboxamide] | < 10 | < 10
COCCn1cc(C(=O)Nc2ccc(Oc3ccnc(-c4cnn(C)c4)c3)c(F)c2)c(=O)n(-c2ccc(F)cc2)c1=O [No. 10, N-(3-fluoro-4-((2-(1-methyl-1H-pyrazol-4-yl)pyridin-4-yl)oxy)phenyl)-3-(4-fluorophenyl)-1-(2-methoxyethyl)-2,4-dioxo-1,2,3,4-tetrahydropyrimidin-5-carboxamide] | < 10 | < 10
CC(C)n1cc(C(=O)Nc2ccc(Oc3ccnc(-c4cnn(C)c4)c3)c(F)c2)c(=O)n(-c2ccncc2)c1=O [No. 20, N-(3-fluoro-4-((2-(1-methyl-1H-pyrazol-4-yl)pyridin-4-yl)oxy)phenyl)-1-isopropyl-2,4-dioxo-3-(pyridin-4-yl)-1,2,3,4-tetrahydropyrimidin-5-carboxamide] | > 100 | > 100
Cn1cc(-c2cc(Oc3ccc(NC(=O)c4cn(CC5CC5)c(=O)n(-c5ccc(F)cc5)c4=O)cc3F)ccn2)cn1 [No. 5, 1-(cyclopropylmethyl)-N-(3-fluoro-4-((2-(1-methyl-1H-pyrazol-4-yl)pyridin-4-yl)oxy)phenyl)-3-(4-fluorophenyl)-2,4-dioxo-1,2,3,4-tetrahydropyrimidin-5-carboxamide] | < 10 | < 10
CC(C)n1cc(C(=O)Nc2ccc(-c3cc(-c4cn[nH]c4)cnc3N)c(F)c2)c(=O)n(-c2ccc(F)cc2)c1=O [No. 40, N-(4-(2-amino-5-(1H-pyrazol-4-yl)pyridin-3-yl)-3-fluorophenyl)-3-(4-fluorophenyl)-1-isopropyl-2,4-dioxo-1,2,3,4-tetrahydropyrimidin-5-carboxamide] | > 100 | > 100
CC(C)n1cc(C(=O)Nc2cc(F)c(Oc3ccnc(-c4cnn(C)c4)c3)c(F)c2)c(=O)n(-c2ccc(F)cc2)c1=O [No. 28, N-(3,5-difluoro-4-((2-(1-methyl-1H-pyrazol-4-yl)pyridin-4-yl)oxy)phenyl)-3-(4-fluorophenyl)-1-isopropyl-2,4-dioxo-1,2,3,4-tetrahydropyrimidin-5-carboxamide] | – | < 10
CC(C)n1cc(C(=O)Nc2cc(F)c(Oc3ccnc(-c4cnn(C)c4)c3)cc2F)c(=O)n(-c2ccc(F)cc2)c1=O [No. 29, N-(2,5-difluoro-4-((2-(1-methyl-1H-pyrazol-4-yl)pyridin-4-yl)oxy)phenyl)-3-(4-fluorophenyl)-1-isopropyl-2,4-dioxo-1,2,3,4-tetrahydropyrimidin-5-carboxamide] | – | < 10
Cc1nn(C)cc1-c1cc(Oc2ccc(NC(=O)c3cn(C(C)C)c(=O)n(-c4ccc(F)cc4)c3=O)cc2F)ccn1 [No. 35, N-(4-((2-(1,3-dimethyl-1H-pyrazol-4-yl)pyridin-4-yl)oxy)-3-fluorophenyl)-3-(4-fluorophenyl)-1-isopropyl-2,4-dioxo-1,2,3,4-tetrahydropyrimidin-5-carboxamide] | – | 10 to 100
Cc1ccc(-n2c(=O)c(C(=O)Nc3ccc(Oc4ccnc(-c5cnn(C)c5)c4)c(F)c3)cn(C(C)C)c2=O)cc1 [No. 15, N-(3-fluoro-4-((2-(1-methyl-1H-pyrazol-4-yl)pyridin-4-yl)oxy)phenyl)-1-isopropyl-2,4-dioxo-3-p-tolyl-1,2,3,4-tetrahydropyrimidin-5-carboxamide] | < 10 | < 10
CC(C)n1cc(C(=O)Nc2ccc(Oc3ccnc(-c4cnn(CCN5CCN(C)CC5)c4)c3)c(F)c2)c(=O)n(-c2ccc(F)cc2)c1=O [No. 34, N-(3-fluoro-4-((2-(1-(2-(4-methylpiperazin-1-yl)ethyl)-1H-pyrazol-4-yl)pyridin-4-yl)oxy)phenyl)-3-(4-fluorophenyl)-1-isopropyl-2,4-dioxo-1,2,3,4-tetrahydropyrimidin-5-carboxamide] | – | 10 to 100
Cn1cc(-c2cc(Oc3ccc(NC(=O)c4cn(CCO)c(=O)n(-c5ccc(F)cc5)c4=O)cc3F)ccn2)cn1 [No. 9, N-(3-fluoro-4-((2-(1-methyl-1H-pyrazol-4-yl)pyridin-4-yl)oxy)phenyl)-3-(4-fluorophenyl)-1-(2-hydroxyethyl)-2,4-dioxo-1,2,3,4-tetrahydropyrimidin-5-carboxamide] | > 100 | 10 to 100
CC(C)n1cc(C(=O)Nc2ccc(Oc3ccnc(-c4cnn(C5CC5)c4)c3)c(F)c2)c(=O)n(-c2ccc(F)cc2)c1=O [No. 33, N-(4-((2-(1-cyclopropyl-1H-pyrazol-4-yl)pyridin-4-yl)oxy)-3-fluorophenyl)-3-(4-fluorophenyl)-1-isopropyl-2,4-dioxo-1,2,3,4-tetrahydropyrimidin-5-carboxamide] | – | 10 to 100
CC(C)n1cc(C(=O)Nc2ccc(Oc3ccncc3-c3cnn(C)c3)cc2)c(=O)n(-c2ccc(F)cc2)c1=O [No. 36, 3-(4-fluorophenyl)-1-isopropyl-N-(4-((3-(1-methyl-1H-pyrazol-4-yl)pyridin-4-yl)oxy)phenyl)-2,4-dioxo-1,2,3,4-tetrahydropyrimidin-5-carboxamide] | – | 10 to 100
CC(C)n1cc(C(=O)Nc2ccc(Oc3ccnc(-c4cnn(C)c4)c3)c(F)c2F)c(=O)n(-c2ccc(F)cc2)c1=O [No. 27, N-(2,3-difluoro-4-((2-(1-methyl-1H-pyrazol-4-yl)pyridin-4-yl)oxy)phenyl)-3-(4-fluorophenyl)-1-isopropyl-2,4-dioxo-1,2,3,4-tetrahydropyrimidin-5-carboxamide] | – | 10 to 100
CC(C)n1cc(C(=O)Nc2ccc(Oc3ccnc(-c4cn[nH]c4)c3)c(F)c2)c(=O)n(-c2ccc(F)cc2)c1=O [No. 31, N-(4-((2-(1H-pyrazol-4-yl)pyridin-4-yl)oxy)-3-fluorophenyl)-3-(4-fluorophenyl)-1-isopropyl-2,4-dioxo-1,2,3,4-tetrahydropyrimidin-5-carboxamide] | – | 10 to 100
Cn1cc(-c2cnccc2Oc2ccc(NC(=O)c3cn(C)c(=O)n(-c4ccc(F)cc4)c3=O)cc2)cn1 [No. 53, 3-(4-fluorophenyl)-1-methyl-N-(4-((3-(1-methyl-1H-pyrazol-4-yl)pyridin-4-yl)oxy)phenyl)-2,4-dioxo-1,2,3,4-tetrahydropyrimidin-5-carboxamide] | – | > 100
CC(C)n1cc(C(=O)Nc2ccc(Oc3ccnc(-c4cnn(CC(C)(C)O)c4)c3)c(F)c2)c(=O)n(-c2ccc(F)cc2)c1=O [No. 32, N-(3-fluoro-4-((2-(1-(2-hydroxy-2-methylpropyl)-1H-pyrazol-4-yl)pyridin-4-yl)oxy)phenyl)-3-(4-fluorophenyl)-1-isopropyl-2,4-dioxo-1,2,3,4-tetrahydropyrimidin-5-carboxamide] | – | 10 to 100
CCn1cc(C(=O)Nc2ccc(Oc3ccncc3-c3cnn(C)c3)cc2)c(=O)n(-c2ccc(F)cc2)c1=O [No. 52, 3-(4-fluorophenyl)-1-ethyl-N-(4-((3-(1-methyl-1H-pyrazol-4-yl)pyridin-4-yl)oxy)phenyl)-2,4-dioxo-1,2,3,4-tetrahydropyrimidin-5-carboxamide] | – | 10 to 100
CC(C)n1cc(C(=O)Nc2ccc(Oc3ccnc(-c4cnn(C)c4)c3)cc2F)c(=O)n(-c2ccc(F)cc2)c1=O [No. 26, N-(2-fluoro-4-((2-(1-methyl-1H-pyrazol-4-yl)pyridin-4-yl)oxy)phenyl)-3-(4-fluorophenyl)-1-isopropyl-2,4-dioxo-1,2,3,4-tetrahydropyrimidin-5-carboxamide] | – | < 10
CC(C)n1cc(C(=O)Nc2ccc(Oc3ccnc(-c4cnn(C)c4)c3)c(F)c2)c(=O)n(-c2ccc(F)cc2)c1=O [No. 3, N-(3-fluoro-4-((2-(1-methyl-1H-pyrazol-4-yl)pyridin-4-yl)oxy)phenyl)-3-(4-fluorophenyl)-1-isopropyl-2,4-dioxo-1,2,3,4-tetrahydropyrimidin-5-carboxamide] | – | < 10
CC(C)n1cc(C(=O)Nc2ccc(Oc3ccnc(-c4cnn(C)c4)c3)cc2)c(=O)n(-c2ccc(F)cc2)c1=O [No. 25, 3-(4-fluorophenyl)-1-isopropyl-N-(4-((2-(1-methyl-1H-pyrazol-4-yl)pyridin-4-yl)oxy)phenyl)-2,4-dioxo-1,2,3,4-tetrahydropyrimidin-5-carboxamide] | – | < 10
COc1cc(NC(=O)c2cn(C(C)C)c(=O)n(-c3ccc(F)cc3)c2=O)ccc1Oc1ccnc(-c2cnn(C)c2)c1 [No. 58, 3-(4-fluorophenyl)-1-isopropyl-N-(3-methoxy-4-((2-(1-methyl-1H-pyrazol-4-yl)pyridin-4-yl)oxy)phenyl)-2,4-dioxo-1,2,3,4-tetrahydropyrimidin-5-carboxamide] | > 100 | –
Cn1cc(-c2cnccc2Oc2ccc(NC(=O)c3cn(CC4CCOCC4)c(=O)n(-c4ccc(F)cc4)c3=O)cc2)cn1 [No. 54, 3-(4-fluorophenyl)-N-(4-((3-(1-methyl-1H-pyrazol-4-yl)pyridin-4-yl)oxy)phenyl)-2,4-dioxo-1-((tetrahydro-2H-pyran-4-yl)methyl)-1,2,3,4-tetrahydropyrimidin-5-carboxamide] | – | 10 to 100
